The structures appear in SMILES notation.

Experiment [1] is filed under the species Rattus norvegicus. The experiment in a line: Molar concentration required to relax rat aorta precontracted with 30 mM KCL by 50% of intrinsic activity (calculated). In kind it is functional.
For experiment [2], the species on record is Rattus norvegicus. Briefly: Molar concentration required to relax rat aorta precontracted with 30 mM KCL by 50% of intrinsic activity. In kind it is functional.

In general, EC50 refers to the concentration needed to bring the measured effect to its halfway point. As to `C/N=C(/S)C1=CC(C)(C)Oc2ccc(S(C)(=O)=O)cc21`, in the experiment filed under Rattus norvegicus [1], the EC50 is 490 nM. Take `C/N=C(/S)C1=CC(C)(C)Oc2ccc(C(F)(F)F)cc21`: in the experiment listed under Rattus norvegicus [1], the EC50 is 2.19 nM. The same measure, in the same setting: the result for `C/N=C(/S)C1=CC(C)(C)Oc2ccc(C(F)(F)C(F)(F)F)cc21` reads 11.7 nM.

On to `C/N=C(/S)C1=CC(C)(C)Oc2ccc(Cl)cc21`, for which the 50% effective concentration (EC50) in the experiment filed under Rattus norvegicus [1] is 28.8 nM.

Turning to `C/N=C(/S)C1=CC(C)(C)Oc2ccc(S(=O)(=O)c3ccccc3)cc21`, the EC50 in the experiment listed under Rattus norvegicus [1] was 19.5 nM. As for `CNC(=S)C1=CC(C)(C)Oc2ccc(OC)cc21`, the EC50 in the experiment listed under Rattus norvegicus [1] was 457 nM.

With `C/N=C(/S)C1=CC(C)(C)Oc2ccccc21`, the EC50 in the experiment filed under Rattus norvegicus [1] is 4470 nM. On the same count and under the same terms, the result for `C/N=C(/S)C1=CC(C)(C)Oc2ccc([N+](=O)[O-])cc21` reads 1.29 nM; that for `C/N=C(/S)C1=CC(C)(C)Oc2ccc(OC(F)(F)F)cc21`, 3.98 nM; that for `CCc1ccc2c(c1)C(/C(S)=N\C)=CC(C)(C)O2`, 282 nM. Still for that read-out and setting: then `C/N=C(/S)C1=CC(C)(C)Oc2ccc(C#N)cc21`, with 21.4 nM; and `C/N=C(/S)C1=CC(C)(C)Oc2ccc(Br)cc21`, with 15.1 nM. For `CNC(=S)C1=CC(C)(C)Oc2ccc(C(=O)OC)cc21`, the EC50 in the experiment filed under Rattus norvegicus [2] is 95.5 nM; in the experiment listed under Rattus norvegicus [1] it was 85.1 nM.

The values above are taken from ChEMBL document CHEMBL1150991, “Comparative molecular field analysis of benzopyran-4-carbothioamide potassium channel openers” (Bioorg Med Chem Lett, 1994).
